# Measured values as given in patent US6689779B2, “Oxazolidinone derivatives and a process for the preparation thereof” (priority 2000, dated 2004).
# Tests used:
# Format in all cases: cell-based
# [1] = test system: methicillin resistant Staphylococcus aureus; experiment: Assay for in vitro antibacterial activity, agar dilution method: MRSA; details: for Antibacterial Activity (MIC50) MRSA: agar dilution method, methicillin resistant Staphylococcus aureus
# [2] = test system: vancomycin resistant Enterococci; experiment: Assay for in vitro antibacterial activity, agar dilution method: VRE; details: for Antibacterial Activity (MIC50) VRE: agar dilution method, vancomycin resistant Enterococci
# H. Influenzae = experiment: Assay for in vitro antibacterial activity, agar dilution method: H. Influenzae
# [3] = test system: ATCC 27294: Vancomycine Mycobacterium tuberculosis; experiment: Assay for in vitro antibacterial activity, agar dilution method: ATCC 27294; details: for Antibacterial Activity (MIC50) ATCC 27294: agar dilution method, Vancomycine Mycobacterium tuberculosis; for MIC50: Mycobacterium tuberculosis, ATCC27294, read-out: Antibacterial Activity (MIC50) ATCC 27294
Structure (SMILES),Antibacterial Activity (MIC50) MRSA [1] [µg/mL],Antibacterial Activity (MIC50) VRE [2] [µg/mL],Antibacterial Activity (MIC50) Influenzae (H. Influenzae) [µg/mL],Antibacterial Activity (MIC50) ATCC 27294 [3] [µg/mL],"MIC50 ([1]; Staphylococcus aureus, MRSA, read-out: Antibacterial Activity (MIC50) MRSA) [µg/mL]","MIC50 ([2]; Enterococcus, VRE, read-out: Antibacterial Activity (MIC50) VRE) [µg/mL]",MIC50 (H. Influenzae; Haemophilus influenzae) [µg/mL],MIC50 [3] [µg/mL]
"CC(=O)NC[C@H]1CN(c2ccc(-c3ccc(N4CCOC4=O)nc3)c(F)c2)C(=O)O1 [Exmp. 143, (S)-[N-3-(4-(2-(2-oxo-(1,3)-oxazolidin-3-yl)-pyridin-5-yl)-3-fluorophenyl)-2-oxo-5-oxazolidinyl]methyl acetamide]",0.78,0.2,1.56,0.1,–,–,–,–
"CC(=O)NC[C@H]1CN(c2ccc(N3CCOCC3)c(F)c2)C(=O)O1 [Example U-100766, reference compound]",–,–,–,–,3.13,1.56,25,1.56
"CC(=O)NC[C@H]1CN(c2ccc(-c3ccc(-n4cncn4)nc3)c(F)c2)C(=O)O1 [Exmp. 129, (S)-[N-3-(4-(2-(1,2,4-triazol-1-yl)pyridin-5-yl)-3-fluorophenyl)-2-oxo-5-oxazolidinyl]methyl acetamide]",0.39,0.2,6.25,0.1,–,–,–,–
"N[C@@H]1CON=C1O [Cycloserine, reference compound]",–,–,–,–,–,–,–,6.25
"CC(=O)NC[C@H]1CN(c2ccc(-c3ccc(-c4nnnn4C)nc3)c(F)c2)C(=O)O1 [Exmp. 139, (S)-[N-3-(4-(2-(1-methyl-5-tetrazolyl)-pyridin-5-yl)-3-fluorophenyl)-2-oxo-5-oxazolidinyl]methyl acetamide]",0.78,0.2,3.13,0.1,–,–,–,–
"CO[C@H]1/C=C/O[C@@]2(C)Oc3c(C)c(O)c4c(O)c(c(/C=N/N5CCN(C)CC5)c(O)c4c3C2=O)NC(=O)/C(C)=C\C=C\[C@H](C)[C@H](O)[C@@H](C)[C@@H](O)[C@@H](C)[C@H](OC(C)=O)[C@@H]1C [Rifampin, reference compound]",–,–,–,–,–,–,–,0.2
"CC(=O)NC[C@H]1CN(c2ccc(-c3ccc(-c4noc(C)n4)nc3)c(F)c2)C(=O)O1 [Exmp. 138, (S)-[N-3-(4-(2-(5-methyl-(1,2,4)-oxadiazol-3-yl)pyridin-5-yl)-3-fluorophenyl)-2-oxo-5-oxazolidinyl]methyl acetamide]",0.78,0.39,3.13,0.1,–,–,–,–
"CC(=O)NC[C@H]1CN(c2ccc(-c3ccc(-n4cnnn4)nc3)c(F)c2)C(=O)O1 [Exmp. 136, (S)-(N-3-(4-(2-(1-tetrazolyl)-pyridin-5-yl)-3-fluorophenyl)-2-oxo-5-oxazolidinyl)methyl acetamide]",0.78,0.2,12.5,0.1,–,–,–,–
"CC(=O)NC[C@H]1CN(c2ccc(-c3ccc(-c4nnn(C)n4)nc3)c(F)c2)C(=O)O1 [Exmp. 140, (S)-[N-3-(4-(2-(2-methyl-5-tetrazolyl)-pyridin-5-yl)-3-fluorophenyl)-2-oxo-5-oxazolidinyl]methyl acetamide]",0.78,0.2,12.5,0.1,–,–,–,–
"CC(=O)NC[C@H]1CN(c2ccc(-c3ccc(-c4nnc(C)o4)nc3)c(F)c2)C(=O)O1 [Exmp. 137, (S)-[N-3-(4-(2-(5-methyl-(1,3,4)-oxadiazol-2-yl)-pyridin-5-yl)-3-fluorophenyl)-2-oxo-5-oxazolidinyl]methyl acetamide]",0.39,0.2,3.13,0.1,–,–,–,–
"CC(=O)NC[C@H]1CN(c2ccc(-c3ccc(-c4nnn[nH]4)nc3)c(F)c2)C(=O)O1 [Exmp. 152, (S)-[N-3-(4-(2-(5-Tetrazolyl)-5-pyridinyl)-3-fluorophenyl)-2-oxo-5-oxazolidinyl]methyl Acetamide]",>25,>25,>25,>25,–,–,–,–
